Literature values, collected in patent publication US7960544B2, “Useful indole compounds” (Ironwood Pharmaceuticals, Inc., priority 2005, dated 2011).
Blank lines part the entries; values can stand above or below the molecule they belong to.

Key:
[1] = test system: MCF-7 cells; details: up to 100 μM
[2] = test system: prostaglandin synthesis
[3] = molecular target: DAO (Homo sapiens, UniProt P14920)
[4] = test system: CCR3; details: cross-desensitization

DAO, sequence (P14920 whole entry): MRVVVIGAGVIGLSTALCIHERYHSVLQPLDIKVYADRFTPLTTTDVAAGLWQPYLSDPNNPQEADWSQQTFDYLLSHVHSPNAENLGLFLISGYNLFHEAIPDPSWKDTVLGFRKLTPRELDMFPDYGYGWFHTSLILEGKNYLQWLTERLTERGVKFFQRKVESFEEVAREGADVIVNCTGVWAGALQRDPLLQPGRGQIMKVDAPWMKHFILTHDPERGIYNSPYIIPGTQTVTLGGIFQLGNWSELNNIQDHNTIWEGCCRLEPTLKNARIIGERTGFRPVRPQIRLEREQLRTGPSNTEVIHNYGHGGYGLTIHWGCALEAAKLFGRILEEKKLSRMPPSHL

SMILES: CCCCC/C=C\C/C=C\C/C=C\C/C=C\CCCC(=O)NCCO [anandamide]
cell viability (as assessed by trypan blue) [1]: No significant decrease in cell viability

SMILES: Cc1c(CC(=O)O)c2cc(O)ccc2n1C(=O)c1ccc(Cl)cc1 [desmethyl metabolite, (1-(4-chlorobenzoyl)-5-hydroxy-2-methyl-1H-indol-3-yl]acetic acid]
ability to inhibit prostaglandin synthesis [2]: has some ability to inhibit prostaglandin synthesis

inhibition of DAO [3]: inhibitor of DAO
SMILES: COc1ccc2c(c1)c(CC(=O)O)c(C)n2C(=O)c1ccc(Cl)cc1 [indomethacin]
expression of CCR3, the receptor for eotaxin [4]: reduces expression of CCR3
